Measurements: patent US9309250B2, “Substituted pyrrolo[2,3-b]pyrazines as ATR kinase inhibitors” (Vertex Pharmaceuticals Incorporated, priority 2011, dated 2016)
pKi: −log10 of the molar value.

The compounds below were run against T1, full-length ATR (Homo sapiens, UniProt Q13535) (assay: ATR Inhibition Assay (radioactive-phosphate incorporation)). Conditions: Ki(app); 5 nM full-length ATR, 10 μM ATP, 800 μM target peptide, 25° C.
T1 construct: Assays were carried out at 25° C. in the presence of 5 nM full-length ATR
Type: biochemical
Method: Compounds were screened for their ability to inhibit ATR kinase using a radioactive-phosphate incorporation assay. Assays were carried out in a mixture of 50 mM Tris/HCl (pH 7.5), 10 mM MgCl2 and 1 mM DTT. Final substrate concentrations were 10 μM [γ-33P]ATP (3mCi 33P ATP/mmol ATP, Perkin Elmer) and 800 μM target peptide (ASELPASQPQPFSAKKK) (SEQ. ID. NO: 1).
Assays were carried out at 25° C. in the presence of 5 nM full-length ATR. An assay stock buffer solution was prepared containing all of the reagents listed above, with the exception of ATP and the test compound of interest. 13.5 μL of the stock solution was placed in a 96 well plate followed by addition of 2 μL of DMSO stock containing serial dilutions of the test compound (typically starting from a final concentration of 15 μM with 3-fold serial dilutions) in duplicate (final DMSO concentration 7%). The plate was pre-incubated for 10 minutes at 25° C. and the reaction initiated by addition of 15 μL [γ-33P]ATP (final concentration 10 μM).
The reaction was stopped after […] by the addition of 30 μL 0.1M phosphoric acid containing 2 mM ATP. A multiscreen phosphocellulose filter 96-well plate (Millipore, Cat no. MAPHN0B50) was pretreated with 100 μL 0.2M phosphoric acid prior to the addition of 45 μL of the stopped assay mixture. The plate was washed with 5×200 μL 0.2M phosphoric acid. After drying, 100 μL Optiphase ‘SuperMix’ liquid scintillation cocktail (Perkin Elmer) was added to the well prior to scintillation counting (1450 Microbeta Liquid Scintillation Counter, Wallac).
After removing mean background values for all of the data points, Ki(app) data were calculated from non-linear regression analysis of the initial rate data using the Prism software package (GraphPad Prism version 3.0cx for Macintosh, GraphPad Software, San Diego Calif., USA).
Below is a chart showing the ATR Inhibition Ki values of compounds of the disclosure.

T1 sequence (Q13535 whole entry): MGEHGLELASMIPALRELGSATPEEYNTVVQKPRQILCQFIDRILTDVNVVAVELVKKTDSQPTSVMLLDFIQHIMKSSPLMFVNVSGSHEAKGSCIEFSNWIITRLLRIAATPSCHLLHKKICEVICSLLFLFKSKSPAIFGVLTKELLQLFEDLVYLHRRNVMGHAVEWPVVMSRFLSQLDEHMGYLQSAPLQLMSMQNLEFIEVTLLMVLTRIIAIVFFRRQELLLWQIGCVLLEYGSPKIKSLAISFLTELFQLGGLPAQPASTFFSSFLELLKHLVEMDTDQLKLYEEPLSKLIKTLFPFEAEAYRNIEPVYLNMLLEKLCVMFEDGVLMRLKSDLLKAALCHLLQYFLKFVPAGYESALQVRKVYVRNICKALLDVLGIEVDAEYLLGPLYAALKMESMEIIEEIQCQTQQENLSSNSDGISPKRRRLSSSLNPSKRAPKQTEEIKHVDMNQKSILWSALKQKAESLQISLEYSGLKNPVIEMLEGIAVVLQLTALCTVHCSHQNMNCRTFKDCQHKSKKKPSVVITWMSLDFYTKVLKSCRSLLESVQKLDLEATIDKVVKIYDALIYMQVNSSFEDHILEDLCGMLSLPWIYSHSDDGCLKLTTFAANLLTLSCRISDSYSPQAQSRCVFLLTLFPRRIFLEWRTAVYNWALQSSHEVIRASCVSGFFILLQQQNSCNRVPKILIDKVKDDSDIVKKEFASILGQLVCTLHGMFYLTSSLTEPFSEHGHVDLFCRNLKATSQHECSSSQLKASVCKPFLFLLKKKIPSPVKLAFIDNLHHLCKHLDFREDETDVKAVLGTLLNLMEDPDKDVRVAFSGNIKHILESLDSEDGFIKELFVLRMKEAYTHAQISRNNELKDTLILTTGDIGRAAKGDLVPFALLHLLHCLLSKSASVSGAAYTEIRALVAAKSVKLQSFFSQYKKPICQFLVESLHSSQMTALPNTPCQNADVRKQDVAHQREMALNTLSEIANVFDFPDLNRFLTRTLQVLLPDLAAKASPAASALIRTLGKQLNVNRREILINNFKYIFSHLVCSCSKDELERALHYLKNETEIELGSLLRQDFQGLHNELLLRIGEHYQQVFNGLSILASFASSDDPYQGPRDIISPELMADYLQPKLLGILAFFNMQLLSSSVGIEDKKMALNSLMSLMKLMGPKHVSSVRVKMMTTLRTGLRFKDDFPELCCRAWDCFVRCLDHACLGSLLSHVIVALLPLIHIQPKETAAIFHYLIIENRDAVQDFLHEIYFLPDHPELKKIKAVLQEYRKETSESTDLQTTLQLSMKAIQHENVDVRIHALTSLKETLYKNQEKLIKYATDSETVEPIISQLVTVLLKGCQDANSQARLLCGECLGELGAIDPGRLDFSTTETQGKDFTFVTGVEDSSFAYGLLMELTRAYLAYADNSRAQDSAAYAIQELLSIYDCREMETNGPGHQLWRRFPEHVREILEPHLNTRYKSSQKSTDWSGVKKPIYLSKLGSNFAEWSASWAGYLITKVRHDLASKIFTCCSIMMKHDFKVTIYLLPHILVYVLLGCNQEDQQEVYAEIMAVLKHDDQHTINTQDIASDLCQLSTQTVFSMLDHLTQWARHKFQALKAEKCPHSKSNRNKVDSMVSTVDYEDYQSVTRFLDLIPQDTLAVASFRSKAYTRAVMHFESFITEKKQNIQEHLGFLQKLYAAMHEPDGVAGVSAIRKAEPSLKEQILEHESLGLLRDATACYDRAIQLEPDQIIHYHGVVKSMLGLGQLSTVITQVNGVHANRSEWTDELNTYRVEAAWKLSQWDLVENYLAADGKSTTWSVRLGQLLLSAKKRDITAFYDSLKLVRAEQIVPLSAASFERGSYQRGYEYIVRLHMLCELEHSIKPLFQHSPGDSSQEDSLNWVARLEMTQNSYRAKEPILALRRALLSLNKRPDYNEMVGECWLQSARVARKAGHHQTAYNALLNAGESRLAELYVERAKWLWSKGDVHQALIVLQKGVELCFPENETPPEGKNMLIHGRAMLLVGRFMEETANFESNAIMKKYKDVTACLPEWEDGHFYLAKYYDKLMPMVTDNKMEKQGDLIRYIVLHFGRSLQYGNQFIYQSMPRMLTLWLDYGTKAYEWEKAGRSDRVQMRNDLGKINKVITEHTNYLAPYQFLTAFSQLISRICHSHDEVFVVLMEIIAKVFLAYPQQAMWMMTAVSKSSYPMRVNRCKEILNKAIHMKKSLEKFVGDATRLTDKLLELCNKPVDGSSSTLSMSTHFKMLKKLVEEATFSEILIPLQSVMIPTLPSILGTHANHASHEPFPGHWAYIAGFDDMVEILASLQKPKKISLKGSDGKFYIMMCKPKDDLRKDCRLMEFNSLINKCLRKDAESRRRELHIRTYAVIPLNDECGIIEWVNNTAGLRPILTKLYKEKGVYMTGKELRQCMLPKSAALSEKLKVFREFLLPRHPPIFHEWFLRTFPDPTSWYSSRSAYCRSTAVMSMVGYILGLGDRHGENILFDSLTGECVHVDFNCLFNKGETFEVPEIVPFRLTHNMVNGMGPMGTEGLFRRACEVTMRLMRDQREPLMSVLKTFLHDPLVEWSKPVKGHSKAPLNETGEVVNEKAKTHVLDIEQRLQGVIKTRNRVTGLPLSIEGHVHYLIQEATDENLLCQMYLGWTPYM

SMILES	pKi
CC(C)S(=O)(=O)c1ccc(-c2cnc3[nH]cc(N4CCc5ccccc5C4=O)c3n2)cc1 [Compound I-2, 2-(2-(4-(isopropylsulfonyl)phenyl)-5H-pyrrolo[2,3-b]pyrazin-7-yl)-3,4-dihydroisoquinolin-1(2H)-one]	6.60 to 7.00
CC1c2ccccc2C(=O)N1c1c[nH]c2ncc(-c3ccc(S(=O)(=O)C(C)C)cc3)nc12 (stereo not shown) [Compound I-3, 2-(2-(4-(isopropylsulfonyl)phenyl)-5H-pyrrolo[2,3-b]pyrazin-7-yl)-3-methylisoindolin-1-one]	≥ 7.30
CN(C)C(=O)c1ccc(-c2cnc3[nH]cc(N4Cc5ccccc5C4=O)c3n2)cc1 [Compound I-4, N,N-dimethyl-4-(7-(1-oxoisoindolin-2-yl)-5H-pyrrolo[2,3-b]pyrazin-2-yl)benzamide]	7.00 to 7.30
N#CC1(c2cc(-c3cnc4[nH]cc(N5Cc6ccccc6C5=O)c4n3)ccn2)CN2CCC1CC2 (stereo not shown) [Compound I-7, 3-(4-(7-(1-oxoisoindolin-2-yl)-5H-pyrrolo[2,3-b]pyrazin-2-yl)pyridin-2-yl)quinuclidine-3-carbonitrile]	≥ 7.30
O=C1c2ccccc2CN1c1c[nH]c2ncc(-c3ccc(S(=O)(=O)C4CCCNC4)cc3)nc12 (stereo not shown) [Compound I-8, 2-(2-(4-(piperidin-3-ylsulfonyl)phenyl)-5H-pyrrolo[2,3-b]pyrazin-7-yl)isoindolin-1-one]	≥ 7.30
CC(C)S(=O)(=O)c1ccc(-c2cnc3[nH]cc(N4Cc5cc(Br)ccc5C4=O)c3n2)cc1 [Compound I-9, 5-bromo-2-(2-(4-(isopropylsulfonyl)phenyl)-5H-pyrrolo[2,3-b]pyrazin-7-yl)isoindolin-1-one]	7.00 to 7.30
CC(C)S(=O)(=O)c1ccc(-c2cnc3[nH]cc(N4Cc5cccc(Cl)c5C4=O)c3n2)cc1 [Compound I-12, 7-chloro-2-(2-(4-(isopropylsulfonyl)phenyl)-5H-pyrrolo[2,3-b]pyrazin-7-yl)isoindolin-1-one]	≥ 7.30
CC(C)S(=O)(=O)c1ccc(-c2cnc3[nH]cc(N4Cc5cccc([N+](=O)[O-])c5C4=O)c3n2)cc1 [Compound I-14, 2-(2-(4-(isopropylsulfonyl)phenyl)-5H-pyrrolo[2,3-b]pyrazin-7-yl)-7-nitroisoindolin-1-one]	≥ 7.30
CC(C)S(=O)(=O)c1ccc(-c2cnc3[nH]cc(N4Cc5cc(CN)ccc5C4=O)c3n2)cc1 [Compound I-15, 5-(aminomethyl)-2-(2-(4-(isopropylsulfonyl)phenyl)-5H-pyrrolo[2,3-b]pyrazin-7-yl)isoindolin-1-one]	6.60 to 7.00
CC(C)S(=O)(=O)c1ccc(-c2cnc3[nH]cc(N4Cc5c(C#N)cccc5C4=O)c3n2)cc1 [Compound I-16, 2-(2-(4-(isopropylsulfonyl)phenyl)-5H-pyrrolo[2,3-b]pyrazin-7-yl)-1-oxoisoindoline-4-carbonitrile]	7.00 to 7.30
CC(C)S(=O)(=O)c1ccc(-c2cnc3[nH]cc(N4Cc5c(CN)cccc5C4=O)c3n2)cc1 [Compound I-17, 4-(aminomethyl)-2-(2-(4-(isopropylsulfonyl)phenyl)-5H-pyrrolo[2,3-b]pyrazin-7-yl)isoindolin-1-one]	≥ 7.30
CC(C)S(=O)(=O)c1ccc(-c2cnc3[nH]cc(N4Cc5cccc(C#N)c5C4=O)c3n2)cc1 [Compound I-18, 2-(2-(4-(isopropylsulfonyl)phenyl)-5H-pyrrolo[2,3-b]pyrazin-7-yl)-3-oxoisoindoline-4-carbonitrile]	≥ 7.30
CC(C)S(=O)(=O)c1ccc(-c2cnc3[nH]cc(N4Cc5ccc(CN)cc5C4=O)c3n2)cc1 [Compound I-20, 6-(aminomethyl)-2-(2-(4-(isopropylsulfonyl)phenyl)-5H-pyrrolo[2,3-b]pyrazin-7-yl)isoindolin-1-one]	≥ 7.30
O=C1c2c(Cl)cccc2CN1c1c[nH]c2ncc(-c3ccc(S(=O)(=O)C4CCNCC4)cc3)nc12 [Compound I-23, 7-chloro-2-(2-(4-(piperidin-4-ylsulfonyl)phenyl)-5H-pyrrolo[2,3-b]pyrazin-7-yl)isoindolin-1-one]	≥ 7.30
CC(C)S(=O)(=O)c1ccc(-c2cnc3[nH]cc(N4Cc5ccc(NCCN(C)C)cc5C4=O)c3n2)cc1 [Compound I-26, 6-((2-(dimethylamino)ethyl)amino)-2-(2-(4-(isopropylsulfonyl)phenyl)-5H-pyrrolo[2,3-b]pyrazin-7-yl)isoindolin-1-one]	≥ 7.30
CC(C)S(=O)(=O)c1ccc(-c2cnc3[nH]cc(N4Cc5ccc(N6CC[C@H](N)C6)cc5C4=O)c3n2)cc1 [Compound I-27, (S)-6-(3-aminopyrrolidin-1-yl)-2-(2-(4-(isopropylsulfonyl)phenyl)-5H-pyrrolo[2,3-b]pyrazin-7-yl)isoindolin-1-one]	≥ 7.30

The next lines start with the values.

pKi	SMILES
≥ 7.30	CC(C)S(=O)(=O)c1ccc(-c2cnc3[nH]cc(N4Cc5ccccc5C4=O)c3n2)cc1 [Compound I-1, 2-(2-(4-(isopropylsulfonyl)phenyl)-5H-pyrrolo[2,3-b]pyrazin-7-yl)isoindolin-1-one]
≥ 7.30	O=C1c2ccccc2CN1c1c[nH]c2ncc(-c3ccc(S(=O)(=O)C4COC4)cc3)nc12 [Compound I-5, 2-(2-(4-(oxetan-3-ylsulfonyl)phenyl)-5H-pyrrolo[2,3-b]pyrazin-7-yl)isoindolin-1-one]
≥ 7.30	CC(C)(C#N)c1cc(-c2cnc3[nH]cc(N4Cc5ccccc5C4=O)c3n2)ccn1 [Compound I-6, 2-methyl-2-(4-(7-(1-oxoisoindohn-2-yl)-5H-pyrrolo[2,3-b]pyrazin-2-yl)pyridin-2-yl)propanenitrile]
7.00 to 7.30	CC(C)S(=O)(=O)c1ccc(-c2cnc3[nH]cc(N4Cc5c(Cl)cccc5C4=O)c3n2)cc1 [Compound I-11, 4-chloro-2-(2-(4-(isopropylsulfonyl)phenyl)-5H-pyrrolo[2,3-b]pyrazin-7-yl)isoindolin-1-one]
≥ 7.30	CC(C)S(=O)(=O)c1ccc(-c2cnc3[nH]cc(N4Cc5cccc(CN)c5C4=O)c3n2)cc1 [Compound I-19, 7-(aminomethyl)-2-(2-(4-(isopropylsulfonyl)phenyl)-5H-pyrrolo[2,3-b]pyrazin-7-yl)isoindolin-1-one]
≥ 7.30	CC(C)S(=O)(=O)c1ccc(-c2cnc3[nH]cc(N4Cc5cccc(N)c5C4=O)c3n2)cc1 [Compound I-21, 7-amino-2-(2-(4-(isopropylsulfonyl)phenyl)-5H-pyrrolo[2,3-b]pyrazin-7-yl)isoindolin-1-one]
≥ 7.30	O=C1c2c(Cl)cccc2CN1c1c[nH]c2ncc(-c3ccc(S(=O)(=O)C4CCCNC4)cc3)nc12 (stereo not shown) [Compound I-24, 7-chloro-2-(2-(4-(piperidin-3-ylsulfonyl)phenyl)-5H-pyrrolo[2,3-b]pyrazin-7-yl)isoindolin-1-one]
≥ 7.30	CC(C)S(=O)(=O)c1ccc(-c2cnc3[nH]cc(N4Cc5ccc(N6CC[C@@H](N)C6)cc5C4=O)c3n2)cc1 [Compound I-25, (R)-6-(3-aminopyrrolidin-1-yl)-2-(2-(4-(isopropylsulfonyl)phenyl)-5H-pyrrolo[2,3-b]pyrazin-7-yl)isoindolin-1-one]

Same assay, conditions: numeric bound printed among class symbols; Ki(app); 5 nM full-length ATR, 10 μM ATP, 25° C.

pKi	SMILES
< 5.40	CC(C)S(=O)(=O)c1ccc(-c2cnc3[nH]cc(N4Cc5ccc(C#N)cc5C4=O)c3n2)cc1 [Compound I-13, 2-(2-(4-(isopropylsulfonyl)phenyl)-5H-pyrrolo[2,3-b]pyrazin-7-yl)-3-oxoisoindoline-5-carbonitrile]
